Data published in US20130281467A1, “NOVEL MICROBICIDES” (SYNGENTA PARTICIPATIONS AG, priority 2010, published 2013).

What was measured:
Alternaria solani = test: Fungicidal activity against Alternaria solani / tomato / leaf disc (early blight); format: in vivo; conditions: foliar, tomato leaf disks, inoculated 2 days after application, compared to untreated, read-out: disease control
Method: Fungicidal Activity Against Alternaria solani/Tomato/Leaf Disc (Early Blight) Tomato leaf disks cv. Baby were placed on agar in multiwell plates (24-well format) and sprayed with the formulated test compound diluted in water. The leaf disks were inoculated with a spore suspension of the fungus 2 days after application. The inoculated leaf disks were incubated at 23° C./21° C.

[1] = tested on: Thanatephorus cucumeris (Rhizoctonia solani); test: Fungicidal activity against Thanatephorus cucumeris (Rhizoctonia solani) / liquid culture (foot rot, damping-off); format: cell-based; conditions: 3-4 days after application, read-out: disease control (inhibition of growth, photometrically)
Procedure, shortened: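 Fungal mycelia fragments from fresh liquid culture were mixed into potato dextrose broth and added to test compounds supplied in DMSO. Incubation was at 24° C. Growth inhibition was read photometrically 3-4 days after application.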

Pyrenophora teres = test: Fungicidal activity against Pyrenophora teres / barley / leaf disc preventative (net blotch); format: in vivo; conditions: foliar, barley leaf segments, inoculated 2 days after application, compared to untreated, read-out: disease control
Procedure, shortened: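 Barley leaf segments (cv. Hasso) on agar sprayed with formulated compound in water, then spore-inoculated 2 days later. Kept at 20 °C, 65% rh, 12 h light/dark; disease control versus untreated scored 5-7 days after application.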

[2] = tested on: Monographella nivalis (Microdochium nivale); test: Fungicidal activity against Monographella nivalis (Microdochium nivale) / liquid culture (foot rot cereals); format: cell-based; conditions: 4-5 days after application, read-out: disease control (inhibition of growth, photometrically)
Procedure, shortened: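 Conidia in potato dextrose broth added to microtiter wells holding test compound in DMSO. Incubated at 24° C.; growth inhibition read photometrically 4-5 days after application.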

[3] = tested on: Mycosphaerella arachidis (Cercospora arachidicola); test: Fungicidal activity against Mycosphaerella arachidis (Cercospora arachidicola) / liquid culture (early leaf spot); format: cell-based; conditions: 4-5 days after application, read-out: disease control (inhibition of growth, photometrically)
Procedure, shortened: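 Cryopreserved conidia in potato dextrose broth added to compound in DMSO in microtiter plates. Incubation at 24 °C; growth inhibition read photometrically 4-5 days after application.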

[4] = tested on: Glomerella lagenarium (Colletotrichum lagenarium); test: Fungicidal activity against Glomerella lagenarium (Colletotrichum lagenarium) / liquid culture (anthracnose); format: cell-based; conditions: Colletotrichum orbiculare, 3-4 days after application, read-out: disease control (inhibition of growth, photometrically)
Procedure, shortened: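 Cryostored conidia mixed into potato dextrose broth were added to test compound in DMSO. Plates were incubated at 24° C. Growth inhibition was measured photometrically 3-4 days after application.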

[5] = tested on: Puccinia recondita f. sp. tritici; test: Fungicidal activity against Puccinia recondita f. sp. tritici / wheat / leaf disc preventative (brown rust); format: in vivo; conditions: foliar, wheat leaf segments, inoculated 1 day after application, compared to untreated, read-out: disease control
Procedure, shortened: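 Wheat leaf segments (cv. Kanzler) on agar sprayed with formulated compound in water, inoculated with spore suspension 1 day later. Incubated at 19° C, 75% rh, 12 h light/12 h dark; percent disease control versus untreated scored 7-9 days after application.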

[6] = tested on: Phaeosphaeria nodorum (Septoria nodorum); test: Fungicidal activity against Phaeosphaeria nodorum (Septoria nodorum) / wheat / leaf disc preventative (glume blotch); format: in vivo; conditions: Parastagonospora nodorum, foliar, wheat leaf segments, inoculated 2 days after application, compared to untreated, read-out: disease control
Procedure, shortened: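 Wheat cv. Kanzler leaf segments on agar, sprayed with diluted formulated compound, then spore-inoculated 2 days later. Kept at 20 °C, 75% rh, 12 h light/12 h dark; percent disease control versus untreated scored once untreated discs show disease, 5–7 days after application.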

Gaeumannomyces graminis = test: Fungicidal activity against Gaeumannomyces graminis / liquid culture (take-all of cereals); format: cell-based; conditions: 4-5 days after application, read-out: disease control (inhibition of growth, photometrically)
Procedure, shortened: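 Cryostored mycelial fragments in potato dextrose broth added to 96-well plates with test compound in DMSO. Plates kept at 24° C; growth inhibition measured photometrically 4-5 days after application.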

[7] = tested on: Botryotinia fuckeliana (Botrytis cinerea); test: Fungicidal activity against Botryotinia fuckeliana (Botrytis cinerea) / liquid culture (gray mould); format: cell-based; conditions: 3-4 days after application, read-out: disease control (inhibition of growth, photometrically)
Procedure, shortened: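 Conidia from cryogenic storage were mixed into Vogels broth and added to wells containing compound in DMSO. Plates incubated at 24 °C; growth inhibition read photometrically 3–4 days after application.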

[8] = tested on: Mycosphaerella graminicola (Septoria tritici); test: Fungicidal activity against Mycosphaerella graminicola (Septoria tritici) / liquid culture (Septoria blotch); format: cell-based; conditions: Zymoseptoria tritici, 4-5 days after application, read-out: disease control (inhibition of growth, photometrically)
Procedure, shortened: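 Cryo-stored conidia were suspended in potato dextrose broth and added to test compound dispensed from DMSO solution. Plates were held at 24° C., and growth inhibition was measured photometrically 4-5 days after application.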

[9] = tested on: Blumeria graminis f. Sp. tritici (Erysiphe graminis f. sp. tritici); test: Fungicidal activity against Blumeria graminis f. sp. tritici / wheat / leaf disc preventative (powdery mildew on wheat); format: in vivo; conditions: foliar, wheat leaf segments, inoculated 1 day after application, compared to untreated, read-out: disease control
Procedure, shortened: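 Wheat cv. Kanzler leaf segments on agar were sprayed with the formulated compound diluted in water and inoculated with powdery mildew 1 day later. Incubation was at 20 °C and 60% rh: 24 h dark, then 12 h light/12 h dark. Percent disease control versus untreated was scored 6–8 days after application.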

Compound | melting point | pest or weed control at 200 ppm (Alternaria solani) | inhibition at 200 ppm [1] | pest or weed control at 200 ppm (Pyrenophora teres) | inhibition at 200 ppm [2] | inhibition at 200 ppm [3] | inhibition at 200 ppm [4] | pest or weed control at 200 ppm [5] | pest or weed control at 200 ppm [6] | inhibition at 200 ppm (Gaeumannomyces graminis) | inhibition at 200 ppm [7] | inhibition at 200 ppm [8] | pest or weed control at 200 ppm [9]
Clc1ccccc1Cc1cccc(-c2ncc3c(n2)CCOC3)n1 [Compound 3] | 112 to 113 °C | ≥ 80% | ≥ 80% | ≥ 80% | ≥ 80% | ≥ 80% | ≥ 80% | ≥ 80% | ≥ 80% | ≥ 80% | ≥ 80% | ≥ 80% | ≥ 80%
Clc1ccc(Cc2cccc(-c3ncc4c(n3)CCOC4)n2)cc1 [Compound 5] | 104 to 106 °C | ≥ 80% | ≥ 80% | ≥ 80% | ≥ 80% | ≥ 80% | ≥ 80% | ≥ 80% | ≥ 80% | ≥ 80% | ≥ 80% | ≥ 80% | ≥ 80%

Now from value to molecule, other results behind:

melting point | Compound | pest or weed control at 200 ppm (Alternaria solani) | inhibition at 200 ppm [1] | pest or weed control at 200 ppm (Pyrenophora teres) | inhibition at 200 ppm [2] | inhibition at 200 ppm [3] | inhibition at 200 ppm [4] | pest or weed control at 200 ppm [5] | pest or weed control at 200 ppm [6] | inhibition at 200 ppm (Gaeumannomyces graminis) | inhibition at 200 ppm [7] | inhibition at 200 ppm [8] | pest or weed control at 200 ppm [9]
135 to 137 °C | COc1ccccc1Cc1cccc(-c2ncc3c(n2)CCOC3)n1 [Compound 7] | ≥ 80% | – | ≥ 80% | ≥ 80% | ≥ 80% | ≥ 80% | ≥ 80% | ≥ 80% | ≥ 80% | ≥ 80% | ≥ 80% | ≥ 80%
236 to 237 °C | c1ccc(Cc2cccc(-c3ncc4c(n3)CCC3(C4)OCCO3)n2)cc1 [Compound 19] | ≥ 80% | ≥ 80% | ≥ 80% | ≥ 80% | ≥ 80% | ≥ 80% | ≥ 80% | ≥ 80% | ≥ 80% | ≥ 80% | ≥ 80% | ≥ 80%
216 to 219 °C | COc1ccc(Cc2cccc(-c3ncc4c(n3)CCOC4)n2)cc1 [Compound 21] | ≥ 80% | ≥ 80% | ≥ 80% | ≥ 80% | ≥ 80% | ≥ 80% | ≥ 80% | ≥ 80% | ≥ 80% | ≥ 80% | ≥ 80% | ≥ 80%
